Laboratory results as given in ChEMBL document CHEMBL5726547, “Substituted quinazolines as receptor-type kinase inhibitors” (2017).

biological target: Vascular endothelial growth factor receptor 1 (Homo sapiens, UniProt P17948); assay: AlphaScreen Assay: In AlphaScreen, when the donor and acceptor beads are close in proximity, a series of photochemical events will give rise to a fluorescent signal upon light activation. Here we use biotinylated poly-(Glu, Tyr) 4:1 as the kinase substrate, streptavidin-coated donor beads and anti-phosphortyrosine antibody PY100-coated acceptor beads. Upon phosphorylation, the peptide substrate …
Sequence (P17948 whole entry): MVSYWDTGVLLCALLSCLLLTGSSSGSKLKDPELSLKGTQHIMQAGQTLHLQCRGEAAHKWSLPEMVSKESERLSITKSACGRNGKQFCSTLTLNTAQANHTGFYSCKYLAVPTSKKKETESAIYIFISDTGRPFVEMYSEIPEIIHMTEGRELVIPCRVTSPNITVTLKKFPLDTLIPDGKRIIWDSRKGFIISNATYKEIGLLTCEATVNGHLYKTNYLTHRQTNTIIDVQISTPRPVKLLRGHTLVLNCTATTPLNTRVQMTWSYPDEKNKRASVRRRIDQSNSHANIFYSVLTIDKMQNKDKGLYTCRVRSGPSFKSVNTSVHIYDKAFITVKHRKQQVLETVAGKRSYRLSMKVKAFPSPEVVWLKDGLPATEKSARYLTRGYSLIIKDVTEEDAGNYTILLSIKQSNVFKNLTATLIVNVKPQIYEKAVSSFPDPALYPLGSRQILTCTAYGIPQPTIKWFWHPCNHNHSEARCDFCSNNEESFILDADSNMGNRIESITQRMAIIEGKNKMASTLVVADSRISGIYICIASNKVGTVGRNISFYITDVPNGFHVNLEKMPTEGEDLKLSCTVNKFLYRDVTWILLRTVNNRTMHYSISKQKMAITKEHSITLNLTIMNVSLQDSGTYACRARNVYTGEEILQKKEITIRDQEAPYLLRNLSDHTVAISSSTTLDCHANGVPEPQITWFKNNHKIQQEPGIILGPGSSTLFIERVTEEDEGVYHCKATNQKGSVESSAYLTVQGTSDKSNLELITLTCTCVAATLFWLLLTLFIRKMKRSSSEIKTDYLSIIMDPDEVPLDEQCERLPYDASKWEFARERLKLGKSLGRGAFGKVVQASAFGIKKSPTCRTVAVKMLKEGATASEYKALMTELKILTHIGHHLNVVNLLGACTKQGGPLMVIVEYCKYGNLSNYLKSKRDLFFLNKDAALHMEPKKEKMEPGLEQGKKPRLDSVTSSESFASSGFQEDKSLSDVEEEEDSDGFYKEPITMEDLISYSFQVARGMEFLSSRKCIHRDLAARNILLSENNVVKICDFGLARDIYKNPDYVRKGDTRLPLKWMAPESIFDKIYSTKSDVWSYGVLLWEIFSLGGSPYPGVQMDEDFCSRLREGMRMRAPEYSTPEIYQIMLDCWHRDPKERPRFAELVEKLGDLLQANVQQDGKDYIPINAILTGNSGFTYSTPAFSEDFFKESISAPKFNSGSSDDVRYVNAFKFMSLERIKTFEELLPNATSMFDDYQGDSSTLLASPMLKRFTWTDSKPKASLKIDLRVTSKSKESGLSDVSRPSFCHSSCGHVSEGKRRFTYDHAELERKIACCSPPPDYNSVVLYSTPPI

Row | Structure (SMILES) | IC50 [µM]
1 | COc1cc2c(Nc3cc(Cl)c(Br)cc3F)ncnc2cc1OC[C@H]1CN2CCOCC2CO1 (stereo not given in full) | 0.05 to 1
2 | COc1cc2c(Nc3ccc(Br)c(Cl)c3F)ncnc2cc1OC[C@H]1CN2CCOCC2CO1 (stereo not given in full) | 0.05 to 1
3 | COc1cc2c(Nc3cc(Cl)c(Cl)cc3F)ncnc2cc1OC[C@H]1CN2CCOCC2CO1 (stereo not given in full) | 0.05 to 1
4 | COc1cc2c(Nc3ccc(Cl)c(Cl)c3F)ncnc2cc1OC[C@H]1CN2CCOCC2CO1 (stereo not given in full) | 0.05 to 1
5 | COc1cc2c(Nc3ccc(F)c(Cl)c3F)ncnc2cc1O[C@H]1CO[C@H]2[C@@H]1OC[C@@H]2OC | 1 to 20
6 | COc1cc2c(Nc3ccc(Cl)c(Cl)c3F)ncnc2cc1OC[C@H]1C[C@@H]2CN(C)C[C@@H]2C1 | 0.05 to 1

More lines, now with the values ahead:

Row | IC50 [µM] | Structure (SMILES)
7 | 0.05 to 1 | COc1cc2c(Nc3cc(Cl)c(Br)cc3F)ncnc2cc1OC[C@@H]1CN2CCOCC2CO1 (stereo not given in full)
8 | 0.05 to 1 | COc1cc2c(Nc3ccc(F)c(Cl)c3F)ncnc2cc1OC[C@H]1CN2CCOCC2CO1 (stereo not given in full)
9 | 0.05 to 1 | COc1cc2c(Nc3cc(Cl)c(Cl)cc3F)ncnc2cc1OC[C@@H]1CN2CCOCC2CO1 (stereo not given in full)
10 | 0.05 to 1 | COc1cc2c(Nc3ccc(F)c(Cl)c3F)ncnc2cc1OC[C@@H]1CN2CCOCC2CO1 (stereo not given in full)
